Experimental data taken from patent US20190134039A1, “ANTIVIRAL JAK INHIBITORS USEFUL IN TREATING OR PREVENTING RETROVIRAL AND OTHER VIRAL INFECTIONS” (EMORY UNIVERSITY, priority 2011, published 2019).
Structures can show the parent of a compound that is named as a salt. Where two headings read alike, the source gives them in different places.

What was measured:
Type in all cases: cell-based
wild-type HIV-1xxLAI = assay: Antiviral potency in primary human lymphocytes, wild type; conditions: Human immunodeficiency virus 1, Lymphocyte
HIV-1 containing M184V = assay: microbe, parasite or virus in culture; conditions: for EC50 / EC90: Human immunodeficiency virus 1, Lymphocyte; for FI50 (ratio of EC50 against mutant virus:EC50 against wild-type xxLAI) / FI90 (ratio of EC90 against mutant virus:EC90 against wild-type xxLAI): M184V
HIV-1 containing K65R = assay: microbe, parasite or virus in culture; conditions: for EC50 / EC90: Human immunodeficiency virus 1, Lymphocyte; for FI50 (ratio of EC50 against mutant virus:EC50 against wild-type xxLAI) / FI90 (ratio of EC90 against mutant virus:EC90 against wild-type xxLAI): K65R
HIV-1 containing L74V = assay: microbe, parasite or virus in culture; conditions: for EC50 / EC90: Human immunodeficiency virus 1, Lymphocyte; for FI50 (ratio of EC50 against mutant virus:EC50 against wild-type xxLAI) / FI90 (ratio of EC90 against mutant virus:EC90 against wild-type xxLAI): L74V
[1] = system: HIV-1 containing A62V/V75I/F77L/F116Y/Q151M; assay: microbe, parasite or virus in culture; conditions: for FI50 (ratio of EC50 against mutant virus:EC50 against wild-type xxLAI) / FI90 (ratio of EC90 against mutant virus:EC90 against wild-type xxLAI): A62V/V75I/F77L/F116Y/Q151M; for EC50 / EC90: Human immunodeficiency virus 1, Lymphocyte
[2] = system: HIV-1 containing 4xAZT (D67N/K70R/T215Y/K219Q); assay: microbe, parasite or virus in culture; conditions: for FI90 (ratio of EC90 against mutant virus:EC90 against wild-type xxLAI) / FI50 (ratio of EC50 against mutant virus:EC50 against wild-type xxLAI): 4xAZT (D67N/K70R/T215Y/K219Q); for EC50 / EC90: Human immunodeficiency virus 1, Lymphocyte
[3] = system: various NRTI-resistant HIV-1; assay: Antiviral potency against various NRTI-resistant HIV-1 in primary human lymphocytes (summary over strains); conditions: K65R, M184V, L74V, A62V/V75I/F77L/F116Y/Q151M, 4xAZT
Text: FI50 is the ratio of EC50 against mutant virus:EC50 against wild-type xxLAI. FI90 is the ratio of EC90 against mutant virus:EC90 against wild-type xxLAI.

[4] = xxLAI, primary human lymphocytes, read-out: EC50
[5] = xxLAI, primary human lymphocytes, read-out: EC90

| SMILES | EC50 (HIV-1 containing M184V) | EC90 (HIV-1 containing M184V) | FI50 (ratio of EC50 against mutant virus:EC50 against wild-type xxLAI) (HIV-1 containing M184V) | FI90 (ratio of EC90 against mutant virus:EC90 against wild-type xxLAI) (HIV-1 containing M184V) | EC50 (HIV-1 containing K65R) | EC90 (HIV-1 containing K65R) | FI50 (ratio of EC50 against mutant virus:EC50 against wild-type xxLAI) (HIV-1 containing K65R) | FI90 (ratio of EC90 against mutant virus:EC90 against wild-type xxLAI) (HIV-1 containing K65R) | EC50 (HIV-1 containing L74V) | EC90 (HIV-1 containing L74V) | FI50 (ratio of EC50 against mutant virus:EC50 against wild-type xxLAI) (HIV-1 containing L74V) | FI90 (ratio of EC90 against mutant virus:EC90 against wild-type xxLAI) (HIV-1 containing L74V) | FI50 (ratio of EC50 against mutant virus:EC50 against wild-type xxLAI) [1] | FI90 (ratio of EC90 against mutant virus:EC90 against wild-type xxLAI) [1] | EC50 [1] | EC90 [1] | FI90 (ratio of EC90 against mutant virus:EC90 against wild-type xxLAI) [2] | EC50 [2] | EC90 [2] | EC50 (wild-type HIV-1xxLAI; [4]) | further results |
| --- | --- | --- | --- | --- | --- | --- | --- | --- | --- | --- | --- | --- | --- | --- | --- | --- | --- | --- | --- | --- | --- |
| Cc1cn([C@H]2C=C[C@@H](CO)O2)c(=O)[nH]c1=O [Compound D4T, 2′,3′-dideoxy-2′,3′-didehydrothymidine] | 600 ± 800 nM | 2600 ± 2500 nM | 0.6 | 0.4 | 1500 ± 600 nM | 7900 ± 300 nM | 1.5 | 1.2 | 900 ± 800 nM | 9800 ± 2400 nM | 0.9 | 1.5 | 6.9 | 11 | 6800 ± 5700 nM | 70300 ± 51400 nM | 8.3 | 27800 ± 37100 nM | 53200 ± 66300 nM | – | EC50 (wild-type HIV-1xxLAI): 1000 ± 500 nM; EC90 (wild-type HIV-1xxLAI): 6400 ± 400 nM |
| O=C1Nc2ccc(Cl)cc2[C@@](C#CC2CC2)(C(F)(F)F)O1 [EFV, efavirenz] | 10 ± 6 nM | 80 ± 80 nM | 0.5 | 0.4 | 7 nM | 20 ± 10 nM | 0.3 | 0.1 | 60 ± 70 nM | – | 2.6 | 1.1 | 7.7 | 2 | 200 ± 300 nM | 440 ± 600 nM | 1 | 70 ± 40 nM | – | 20 ± 30 nM | EC90 (wild-type HIV-1xxLAI; [5]): 200 ± 300 nM; FI50 (ratio of EC50 against mutant virus:EC50 against wild-type xxLAI) [2]: 3.1; antiviral potency for wild-type HIV-1xxLAI versus NRTI-resistant HIV-1 [3]: similarly potent across all NRTI resistant strains |
| Nc1ccn([C@@H]2CS[C@H](CO)O2)c(=O)n1 [Compound 3TC, (−)-cis-2-hydroxymethyl-5-(cytosin-1-yl)-1,3-oxathiolane] | > 10000 nM | > 10000 nM | 13.3 | 3.2 | 2500 ± 3000 nM | 6000 ± 5300 nM | 3.3 | 1.9 | 600 ± 800 nM | 2900 ± 2900 nM | 0.7 | 0.9 | 0.6 | 0.9 | 500 ± 700 nM | 2700 ± 1700 nM | 1.1 | 700 ± 800 nM | 3400 ± 1100 nM | 800 ± 400 nM | EC90 (wild-type HIV-1xxLAI; [5]): 3100 ± 1200 nM; FI50 (ratio of EC50 against mutant virus:EC50 against wild-type xxLAI) [2]: 0.9 |
| OC[C@@H]1CC[C@H](n2cnc3c(O)ncnc32)O1 [ddI, 2′,3′-dideoxyinosine] | 11500 ± 9100 nM | 44900 ± 26200 nM | 1 | 0.8 | 21200 ± 18300 nM | 86700 ± 800 nM | 1.8 | 1.6 | 13200 ± 8500 nM | 80900 ± 16600 nM | 1.1 | 1.1 | 3.5 | 1.5 | 40500 ± 52100 nM | 83500 ± 28600 nM | 1.4 | 35500 ± 31000 nM | 77100 ± 32400 nM | 11500 ± 6600 nM | EC90 (wild-type HIV-1xxLAI; [5]): 55400 ± 23000 nM; FI50 (ratio of EC50 against mutant virus:EC50 against wild-type xxLAI) [2]: 3.1 |
| Nc1nc(=O)n([C@@H]2CS[C@H](CO)O2)cc1F (relative stereo) [(−)FTC, cis-2-hydroxymethyl-5-(5-fluorocytosin-1-yl)-1,3-oxathiolane] | 10100 ± 7300 nM | 41300 ± 29300 nM | 117 | 50 | 500 ± 400 nM | 2400 ± 1400 nM | 5.5 | 2.9 | 200 ± 200 nM | 1300 ± 1000 nM | 2 | 1.6 | 4.2 | 2.5 | 400 ± 300 nM | 2100 ± 1600 nM | 1.4 | 200 ± 100 nM | 1200 ± 100 nM | 90 ± 20 nM | EC90 (wild-type HIV-1xxLAI; [5]): 800 ± 400 nM; FI50 (ratio of EC50 against mutant virus:EC50 against wild-type xxLAI) [2]: 2 |
| CC(C)OC(=O)OCOP(=O)(CO[C@H](C)Cn1cnc2c(N)ncnc21)OCOC(=O)OC(C)C [TDF, Tenofovir disoproxil fumarate] | 90 ± 30 nM | 500 ± 300 nM | 0.6 | 0.6 | 400 ± 100 nM | 1600 ± 500 nM | 2.2 | 1.7 | – | 200 ± 100 nM | 1.4 | 1.2 | 3.9 | 3.9 | 700 ± 800 nM | 3600 ± 2200 nM | 1.3 | 70 ± 40 nM | 1200 ± 1100 nM | 200 ± 200 nM | EC90 (wild-type HIV-1xxLAI; [5]): 900 ± 800 nM; FI50 (ratio of EC50 against mutant virus:EC50 against wild-type xxLAI) [2]: 1.3 |
